Data set [1] is described as follows: Measured adsorption values of drugs on activated carbon. It counts as physicochemical. The settings on record: specific surface area 6800M^2/g.
A short description of data set [2]: Measured adsorption values of drugs on hydroxyl-amino carbon. The data set is classed as physicochemical. The settings on record: specific surface area 6800M^2/g.
Data set [3] relates to cancer patients. Put plainly: Experimental clinical cases, intravenous injection. It counts as in vivo, human. The settings on record: Case 4, breast cancer with systematic metastasis, before activated carbon treatment.

As to `O=c1[nH]cc(Cl)c(=O)[nH]1` [5-chlorouracil], in data set [1], the “Adsorption value on activated carbon” value worked out at 75 mg. For the same compound, the “Adsorption value on hydroxyl-amino carbon” value in data set [2] was 102 mg.

Consider `O=c1[nH]cc(F)c(=O)[nH]1` [5-fluorouracil, reference compound], for which the “Adsorption value on hydroxyl-amino carbon” value in data set [2] came to 49 mg.

With `O=P1(N(CCCl)CCCl)NCCCO1` (stereo not drawn) [CTX, reference compound], the “Adsorption value on activated carbon” value in data set [1] is reported as 98 mg. The “Adsorption value on hydroxyl-amino carbon” value in data set [2] is given as 136 mg.

Take `S=c1nc[nH]c2nc[nH]c12` [Example 6-MP, 6-MP, reference compound]: the “Adsorption value on activated carbon” value in data set [1] was found to be 220 mg. For the same compound, the “Adsorption value on hydroxyl-amino carbon” value in data set [2] came to 304 mg. On to `CN1CC[C@]23c4c5ccc(O)c4O[C@H]2[C@@H](O)C=C[C@H]3[C@H]1C5` [Morphine], for which the Analgesia result in data set [3] is “of no effect”. Regarding `Nc1ncnc2nc[nH]c12` [adenine], the “Adsorption value on activated carbon” value in data set [1] is 213 mg. In data set [2], the “Adsorption value on hydroxyl-amino carbon” value amounted to 260 mg. Turning to `ClC(Cl)Cl` [chloroform], the “Adsorption value on activated carbon” value in data set [1] turned out to be 10 mg. In addition, in data set [2], the “Adsorption value on hydroxyl-amino carbon” value is given as 4 mg. Regarding `N.N.[Cl][Pt][Cl]` [cisplatin, reference compound], in data set [1], the “Adsorption value on activated carbon” value worked out at 995 mg. Moreover, the “Adsorption value on hydroxyl-amino carbon” value in data set [2] was found to be 1105 mg. On to `Nc1nc2nc[nH]c2c(=O)[nH]1` [guanine], for which the “Adsorption value on activated carbon” value in data set [1] turned out to be 331 mg. In addition, in data set [2], the “Adsorption value on hydroxyl-amino carbon” value is given as 378 mg. Consider `Cc1c[nH]c(=O)[nH]c1=O` [thymine], for which the “Adsorption value on activated carbon” value in data set [1] is on record as 5 mg. Also, in data set [2], the “Adsorption value on hydroxyl-amino carbon” value was 17 mg.

Regarding `O=c1cc[nH]c(=O)[nH]1` [uracil], the “Adsorption value on activated carbon” value in data set [1] is listed as 33 mg. Moreover, the “Adsorption value on hydroxyl-amino carbon” value in data set [2] amounted to 51 mg. With ferroporphyrin, in data set [1], the “Adsorption value on activated carbon” value is listed as 283 mg. For the same compound, in data set [2], the “Adsorption value on hydroxyl-amino carbon” value stood at 311 mg.

Regarding thymopeptide, the “Adsorption value on activated carbon” value in data set [1] was 90 mg. Moreover, the “Adsorption value on hydroxyl-amino carbon” value in data set [2] was 127 mg.
